Experimental data reported in patent US10472385B2, “Triterpene-glycosides as sweeteners or sweetener enhancers” (priority 2013, dated 2019).

System: panel of 4 panelists (sweet taste)
Experiment: Organoleptic test of the compounds of formula (I) against sucrose and mogroside V
Assay type: in vivo
Set-up: key: 3 = sweeter than control, 1 = less sweet than control but still sweet
Conditions: compound 0.4 mg/ml (400 ppm) in non-carbonated mineral water; for Organoleptic evaluation compared to mogroside V*: control solution mogroside V 0.1 mg/ml (100 ppm); for Organoleptic evaluation compared to sucrose*: control solution sucrose 20 mg/ml
Experimental: Organoleptic Test of the Compounds of Formula (I) Against Sucrose and Mogroside V
The isolated pure compounds were dissolved in non-carbonated mineral water (“Fonsana Quelle”) in a concentration of 0.4 mg/ml (400 ppm). The sweet taste of each sample was compared by a panel of 4 panelists with a solution of sucrose in a concentration of 20 mg/ml and with a solution of the known sweetener mogroside V (isolated by AnalytiCon from Momordica grosvenori) in a concentration of 0.1 mg/ml (100 ppm).
The sweetness was evaluated as follows:
3=sweeter than the control solution
1=less sweet than the control solution but still sweet

C[C@H](CC[C@@H](O[C@@H]1O[C@H](CO)[C@@H](O)[C@H](O)[C@H]1O[C@@H]1O[C@H](CO)[C@@H](O)[C@H](O)[C@H]1O)C(C)(C)O)[C@H]1CC[C@@]2(C)[C@@H]3CC=C4C(CC[C@H](O)C4(C)C)[C@]3(C)[C@H](O)C[C@]12C (stereo partly drawn) [Compound Aa, (2S,3R,4S,5S,6R)-2-((2S,3R,4S,5S,6R)-2-((3R,6R)-6-((3S,8S,9R,11R,13R,14S,17R)-3,11-dihydroxy-4,4,9,13,14-pentamethyl-2,3,4,7,8,9,10,11,12,13,14,15,16,17-tetradecahydro-1H-cyclopenta[a]phenanthren-17-yl)-2-hydroxy-2-methylheptan-3-yloxy)-4,5-dihydroxy-6-(hydroxymethyl)tetrahydro-2H-pyran-3-yloxy)-6-(hydroxymethyl)tetrahydro-2H-pyran-3,4,5-triol]
Organoleptic evaluation compared to mogroside V*: 2
Organoleptic evaluation compared to sucrose*: 3

C[C@H](CC[C@@H](O[C@@H]1O[C@H](CO[C@@H]2O[C@H](CO)[C@@H](O)[C@H](O)[C@H]2O)[C@@H](O)[C@H](O)[C@H]1O[C@@H]1O[C@H](CO)[C@@H](O)[C@H](O)[C@H]1O)C(C)(C)O)[C@H]1CC[C@@]2(C)C3CC=C4C(CC[C@H](O[C@@H]5O[C@H](CO)[C@@H](O[C@@H]6O[C@H](CO)[C@@H](O)[C@H](O)[C@H]6O)[C@H](O)[C@H]5O)C4(C)C)[C@]3(C)CC[C@]12C (stereo partly shown) [Compound Cc]
Organoleptic evaluation compared to mogroside V*: 3
Organoleptic evaluation compared to sucrose*: 3

C[C@H](CC[C@@H](O[C@@H]1O[C@H](CO[C@@H]2O[C@H](CO)[C@@H](O)[C@H](O)[C@H]2O)[C@@H](O)[C@H](O)[C@H]1O[C@@H]1O[C@H](CO)[C@@H](O)[C@H](O)[C@H]1O)C(C)(C)O)[C@H]1CC[C@@]2(C)[C@@H]3CC=C4C(CC[C@H](O[C@@H]5O[C@H](CO)[C@@H](O)[C@H](O)[C@H]5O[C@@H]5O[C@H](CO)[C@@H](O)[C@H](O)[C@H]5O)C4(C)C)[C@]3(C)CC[C@]12C (stereo partly shown) [Compound Dd]
Organoleptic evaluation compared to mogroside V*: 3
Organoleptic evaluation compared to sucrose*: 3

C[C@H](CC[C@@H](O[C@@H]1O[C@H](CO[C@@H]2O[C@H](CO)[C@@H](O)[C@H](O)[C@H]2O)[C@@H](O)[C@H](O)[C@H]1O[C@@H]1O[C@H](CO)[C@@H](O)[C@H](O)[C@H]1O)C(C)(C)O)[C@H]1CC[C@@]2(C)[C@@H]3CC=C4C(CC[C@H](O[C@@H]5O[C@H](CO)[C@@H](O)[C@H](O)[C@H]5O)C4(C)C)[C@]3(C)CC[C@]12C (stereo partly shown) [Compound Ee]
Organoleptic evaluation compared to mogroside V*: 3
Organoleptic evaluation compared to sucrose*: 3

C[C@H](CC[C@@H](O[C@@H]1O[C@H](CO[C@@H]2O[C@H](CO)[C@@H](O)[C@H](O)[C@H]2O)[C@@H](O)[C@H](O)[C@H]1O[C@@H]1O[C@H](CO)[C@@H](O)[C@H](O)[C@H]1O)C(C)(C)O)[C@H]1CC[C@@]2(C)[C@@H]3CC=C4[C@@H](CC[C@H](O[C@@H]5O[C@H](CO)[C@@H](O)[C@H](O)[C@H]5O[C@@H]5O[C@H](CO)[C@@H](O)[C@H](O)[C@H]5O)C4(C)C)[C@]3(C)[C@H](O)C[C@]12C [Compound Ff]
Organoleptic evaluation compared to mogroside V*: 2
Organoleptic evaluation compared to sucrose*: 3

C[C@H](CC[C@@H](O[C@@H]1O[C@H](CO)[C@@H](O)[C@H](O)[C@H]1O[C@@H]1O[C@H](CO)[C@@H](O)[C@H](O)[C@H]1O)C(C)(C)O)[C@H]1CC[C@@]2(C)C3CC=C4C(CC[C@H](O[C@@H]5O[C@H](CO)[C@@H](O)[C@H](O)[C@H]5O)C4(C)C)[C@]3(C)CC[C@]12C (stereo partly shown) [Compound Gg]
Organoleptic evaluation compared to mogroside V*: 3
Organoleptic evaluation compared to sucrose*: 3

C[C@H](CCC(=O)C(C)(C)O)[C@H]1CC[C@@]2(C)C3CC=C4[C@@H](CC[C@H](O[C@@H]5O[C@H](CO[C@@H]6O[C@H](CO)[C@@H](O)[C@H](O)[C@H]6O)[C@@H](O)[C@H](O)[C@H]5O)C4(C)C)[C@]3(C)[C@H](O)C[C@]12C (stereo partly drawn) [Compound Hh, (6R)-2-hydroxy-6-((3S,9R,10R,11R,13R,14S,17R)-11-hydroxy-4,4,9,13,14-pentamethyl-3-((2R,3R,4S,5S,6R)-3,4,5-trihydroxy-6-(((2R,3R,4S,5S,6R)-3,4,5-trihydroxy-6-(hydroxymethyl)tetrahydro-2H-pyran-2-yloxy)methyl)tetrahydro-2H-pyran-2-yloxy)-2,3,4,7,8,9,10,11,12,13,14,15,16,17-tetradecahydro-1H-cyclopenta[a]phenanthren-17-yl)-2-methylheptan-3-one]
Organoleptic evaluation compared to mogroside V*: 1
Organoleptic evaluation compared to sucrose*: 2

C[C@H](CC[C@@H](O[C@@H]1O[C@H](CO[C@@H]2O[C@H](CO)[C@@H](O)[C@H](O)[C@H]2O)[C@@H](O)[C@H](O)[C@H]1O[C@@H]1O[C@H](CO)[C@@H](O)[C@H](O)[C@H]1O)C(C)(C)O)[C@H]1CC[C@@]2(C)C3CC=C4[C@@H](CCC(=O)C4(C)C)[C@]3(C)[C@H](O)C[C@]12C (stereo partly shown) [Compound Jj]
Organoleptic evaluation compared to mogroside V*: 2
Organoleptic evaluation compared to sucrose*: 3

C[C@H](CC[C@@H](O[C@@H]1O[C@H](CO[C@@H]2O[C@H](CO)[C@@H](O)[C@H](O)[C@H]2O)[C@@H](O)[C@H](O)[C@H]1O[C@@H]1O[C@H](CO)[C@@H](O)[C@H](O)[C@H]1O)C(C)(C)O)[C@H]1CC[C@@]2(C)C3CC=C4[C@@H](CC[C@H](O)C4(C)C)[C@]3(C)CC[C@]12C (stereo partly shown) [Compound Kk]
Organoleptic evaluation compared to mogroside V*: 1
Organoleptic evaluation compared to sucrose*: 2

C[C@H](CC[C@@H](O[C@@H]1O[C@H](CO[C@@H]2O[C@H](CO)[C@@H](O)[C@H](O)[C@H]2O)[C@@H](O)[C@H](O)[C@H]1O[C@@H]1O[C@H](CO)[C@@H](O)[C@H](O)[C@H]1O)C(C)(C)O)[C@H]1CC[C@@]2(C)C3CC=C4[C@@H](CC[C@H](O[C@@H]5O[C@H](CO)[C@@H](O)[C@H](O)[C@H]5O)C4(C)C)[C@]3(C)C(=O)C[C@]12C (stereo partly shown) [Compound Ll]
Organoleptic evaluation compared to mogroside V*: 3
Organoleptic evaluation compared to sucrose*: 3

C[C@H](CC[C@@H](O[C@@H]1O[C@H](CO[C@@H]2O[C@H](CO)[C@@H](O)[C@H](O)[C@H]2O)[C@@H](O)[C@H](O)[C@H]1O[C@@H]1O[C@H](CO)[C@@H](O)[C@H](O)[C@H]1O)C(C)(C)O)[C@H]1CC[C@@]2(C)C3CC=C4[C@@H](CC[C@H](O[C@@H]5O[C@H](CO)[C@@H](O)[C@H](O)[C@H]5O)C4(C)C)[C@]3(C)CC[C@]12C (stereo partly shown) [Compound Mm]
Organoleptic evaluation compared to mogroside V*: 3
Organoleptic evaluation compared to sucrose*: 3
